Measured values as given in paper PMC12452389, “Arginine-Derived Cationic Surfactants Containing Phenylalanine and Tryptophan: Evaluation of Antifungal Activity, Biofilm Eradication, Cytotoxicity, and Ecotoxicity” (Journal of Xenobiotics, 2025).
Where a name gives a salt, the structure may show the parent alone. Read-outs that look alike come from different tables or passages of the source. Peptide text beside a SMILES is read from it. * marks the point of attachment. Lauroyl = CCCCCCCCCCCC(=O)*

Tests used:
Cytotoxicity, MTT assay [1] = type: cell-based, Swiss mouse; details: mouse, 3T3 fibroblast cells, 3T3, MTT, read-out: cell viability; for viability at 24 h, 100 µg/mL: at 100 µg/mL; for viability at 24 h, 50 µg/mL: at 50 µg/mL
Protocol: (§1) Immortal human keratinocyte cells (HaCaT) and […] (3T3) were obtained from Celltec, University of Barcelona. Dulbecco’s Modified Eagle Medium (DMEM) (4.5 g/L glucose) supplemented with 10% (v/v) FBS, 2 mM L-glutamine, 100 U/mL of penicillin, and 100 μg/mL of streptomycin was used to grow the cells in 75 cm^2 culture flasks at 37 °C with a continuous supply of CO2 at a 5% level. Once cells reached about 80% confluence, they were trypsinized with trypsin-EDTA.
(§2) Cells were first grown into the central 60 wells of a 96-well plate under 5% CO2 at 37 °C for 24 h. The DMEM was removed, and cells were exposed to different concentrations of each amphiphile diluted in DMEM supplemented with 5% FBS for 24 h. Finally, two different assays for quantification were used.
(§3) This method relies on the ability of living cells to reduce the yellow MTT reagent into insoluble purple formazan crystals. After the cells were incubated with the surfactants’ solutions, the medium was eliminated, and 100 μL of MTT in PBS (5 mg/mL) diluted 1:10 in culture medium (without phenol red and FBS) was added to each well and co-incubated for 3 h. Then, the medium was discarded, and DMSO was added into each well to solubilize the formazan crystals. Finally, the absorbance of the resulting solutions was measured at 550 nm using a microplate reader (Bio-Rad 550 Hercules, CA, USA).
(§4) The cytotoxic effects of these cationic surfactants were also evaluated using two different cell lines. The use of in vitro cytotoxicity tests is increasing daily, driven by the rise in human exposure to chemicals, as these tests are less costly and time-consuming than in vivo methods. The purpose of in vitro cytotoxicity tests is to detect the biocompatibility of these new surfactants. In this work, the cellular response upon incubation with the different surfactant series was evaluated in two representative skin cell lines: Swiss mouse fibroblasts (3T3 cell line) and human-derived keratinocytes (HaCaT cell line). The in vitro cytotoxicity was determined using the MTT as a measure of mitochondrial activity and the Neutral Red Uptake (NRU) related to lysosomal integrity, which are the most commonly used in vitro cytotoxicity endpoint methods. The cellular response at different concentrations (5, 25, 50, and 100 µM) was evaluated after 24 h of incubation.

Cytotoxicity, MTT assay [2] = type: cell-based; details: human, HaCaT keratinocyte cells, read-out: cell viability; for viability at 24 h, 50 µg/mL: at 50 µg/mL
Protocol: as §1, §2, §3
as §4, with “The use of in vitro cytotoxicity tests is increasing daily, driven by the rise in human exposure to chemicals, as these tests are less costly and time-consuming than in vivo methods. The purpose of in vitro cytotoxicity tests is to detect the biocompatibility of these new surfactants.” left out

[3] = Cytotoxicity, Neutral Red Uptake (NRU) assay; type: cell-based, Swiss mouse; details: mouse, 3T3 fibroblast cells, 3T3, NRU, across the full concentration range, read-out: cell viability
Protocol: as §1, §2
(§5) The NRU assay is based on the accumulation of neutral red dye within the lysosomes of viable, intact cells. Once the cells were incubated with the surfactants, the DMEM was removed, and the NRU dye solution (50 μg/mL dissolved in the medium without FBS and phenol red) was added to each well, and the reaction was allowed for 2 h. The cells were washed with PBS, and 100 μL of an aqueous solution containing 50% absolute ethanol and 1% acetic acid was then added to each well to extract the incorporated dye. The microplates were then stirred for 5 min at 25 °C to facilitate dissolution. Finally, the absorbance of the resulting solutions was measured at λ = 550 nm using a Bio-Rad 550 microplate reader (Hercules, CA, USA).
as §4

[4] = parameters: method as in PMID 36559096; details: CO2 Headspace test, pass level 60%; cited from earlier work
C. albicans biofilms = assay: Eradication of mature biofilm, MTT method; type: cell-based, Candida albicans; details: for concentration removing the total viability of the biofilm: 24 h treatment
Protocol: (§6) Candida strains were cultured in SBA at 30 °C for 24 h. Yeast cells were then suspended in RPMI 1640 broth to a final concentration of 1.5 × 10^7 CFU/mL. For mature biofilm formation, 200 μL of these suspensions was transferred to each well of a 48-well microplate and incubated at 30 °C for 24 h. After incubation, the plate was washed with phosphate-buffered saline (PBS) to remove non-adherent cells. Then, surfactant solutions at various concentrations (200 μL), prepared in RPMI 1640, were added to the wells containing the mature biofilms. Plates were incubated again at 30 °C for 24 h. Following this treatment, the RPMI medium was removed, and wells were washed twice with PBS. To assess biofilm viability, 200 μL of MTT solution (3-(4,5-dimethylthiazol-2-yl)-2,5-diphenyltetrazolium bromide) were added to each well, and plates were incubated for 4 h. After incubation, the MTT solution was removed, and 200 μL of dimethyl sulfoxide (DMSO) were added to solubilize the formazan crystals. Absorbance at 540 nm (A540) was then measured using a microplate reader. Controls without the amino acid-based surfactants were included. All experiments were made in quadruplicate, and the results were averaged to ensure accuracy and reproducibility.
(§7) In this section, we have tested the ability of these cationic surfactants to eradicate mature fungal biofilms of C. albicans and C. tropicalis. Preformed biofilms of these two strains on 48-well plates were exposed to various concentrations of the synthesized surfactants, and the biofilm was not removed after the treatment was quantified using the MTT method (3-[4,5-dimethylthiazol-2-yl]-2,5 diphenyl tetrazolium bromide) (Figure 4). This method detects viable and metabolically active cells within the biofilm by measuring the reduction in MTT to formazan by active mitochondrial enzymes.

C. tropicalis biofilms = assay: Eradication of mature biofilm, MTT method; type: cell-based, Candida tropicalis; details: 24 h treatment
Protocol: as §6, §7

3T3 cells [5] = assay: Cytotoxicity, Neutral Red Uptake (NRU) assay; type: cell-based, Swiss mouse; details: 3T3, NRU, 24 h; moderate toxicity (TANHC12, PANHC12), onset of dramatic toxicity (PNHC12)
Protocol: as §1, §2, §5, §4

3T3 cells [6] = assay: Cytotoxicity, MTT assay; type: cell-based, Swiss mouse; details: Mus musculus, NIH3T3; 3T3, MTT, 24 h; read from viability curves
Protocol: as §1, §2, §3, §4

| Structure (SMILES) | biodegradation [4] | concentration removing the total viability of the biofilm (C. albicans biofilms) | concentration removing the total viability of the biofilm (C. tropicalis biofilms) | concentration at which toxicity was seen (3T3 cells [5]) | other results |
| --- | --- | --- | --- | --- | --- |
| CCCCCCCCCCCC(=O)NC(CCCNC(=N)N)C(=O)OC (centres unmarked) [C12AM] | over 60% |  |  |  | viability at 24 h (Cytotoxicity, MTT assay [1]; across all concentrations up to 100 µg/mL): > 85%; viability at 24 h, 50 µg/mL (Cytotoxicity, MTT assay [2]): ~90%; viability at 24 h [3]: 100% |
| CCCCCCCCCCCC(=O)NC(Cc1ccccc1)C(=O)NC(CCCNC(=N)N)C(=O)OC (stereo not drawn) [C12PAM] (Lauroyl-Phe-Arg-OMe; configuration not given here) | over 60% |  |  |  | reduction of the metabolic activity of the biofilm (C. albicans biofilms; highest concentration tested): less than 65%; viability at 24 h, 100 µg/mL (Cytotoxicity, MTT assay [1]): ~60%; viability at 24 h [3]: 60 to 100% |
| CCCCCCCCCCNC(=O)C(CCCNC(=N)N)NC(=O)C(N)Cc1ccccc1 (centres unmarked) [PANHC10] |  | ≈ 400 μM | ≈ 400 μM |  |  |
| CCCCCCCCCCCCNC(=O)C(CCCNC(=N)N)NC(=O)C(N)Cc1ccccc1 (centres unmarked) [PANHC12, phenylalanine-arginine dodecyl amide dihydrochloride] | did not reach this pass level | ≈ 50 μM | ≈ 50 μM | around 50 µg/mL | viability at 24 h, 50 µg/mL (Cytotoxicity, MTT assay [1]): ~70%; viability at 24 h, 100 µg/mL (Cytotoxicity, MTT assay [1]): 5% |
| CCCCCCCCCCCCCCNC(=O)C(CCCNC(=N)N)NC(=O)C(N)Cc1ccccc1 (centres unmarked) [PANHC14] |  | ≈ 50 μM | ≈ 50 μM |  |  |
| CCCCCCCCCCCCNC(=O)C(N)Cc1ccccc1 (centres unmarked) [PNHC12, phenylalanine dodecyl amide hydrochloride] | did not reach this pass level |  |  | 5000 ng/mL | viability at 24 h, 50 µg/mL (Cytotoxicity, MTT assay [1]): ~0%; IC50 (3T3 cells [6]): < 50 µg/mL; viability at 24 h, 50 µg/mL (Cytotoxicity, MTT assay [2]): 0% |
| CCCCCCCCCCNC(=O)C(CCCNC(=N)N)NC(=O)C(N)Cc1c[nH]c2ccccc12 (centres unmarked) [TANHC10] |  |  |  |  | viability at 24 h (Cytotoxicity, MTT assay [2]; across the concentration range (TANHCn series)): ~80% |
| CCCCCCCCCCCCNC(=O)C(CCCNC(=N)N)NC(=O)C(N)Cc1c[nH]c2ccccc12 (centres unmarked) [TANHC12] | did not reach this pass level |  |  | around 50 µg/mL |  |
